The target in series [1] is T1, Stimulator of interferon genes protein (Homo sapiens, UniProt Q86WV6). Description: Displacement of 5-FAM-labeled diABZI tracer from N-terminal 6xHis-tagged human STING R232H mutant CTD extracted from Escherichia coli BL21(DE3) incubated for 30 mins by competitive binding based fluorescence polarization assay. A general note: Polarisation of emitted light reports the rotation of a fluorescent probe.

For series [2], the target named is T1, Stimulator of interferon genes protein. Description: Displacement of 5-FAM-labeled diABZI tracer from N-terminal 6xHis-tagged wild-type human STING CTD extracted from Escherichia coli BL21(DE3) incubated for 30 mins by competitive binding based fluorescence polarization assay.
Series [3] has as its target T2, Stimulator of interferon genes protein (Mus musculus, UniProt Q3TBT3).
T2 sequence (Q3TBT3 whole entry): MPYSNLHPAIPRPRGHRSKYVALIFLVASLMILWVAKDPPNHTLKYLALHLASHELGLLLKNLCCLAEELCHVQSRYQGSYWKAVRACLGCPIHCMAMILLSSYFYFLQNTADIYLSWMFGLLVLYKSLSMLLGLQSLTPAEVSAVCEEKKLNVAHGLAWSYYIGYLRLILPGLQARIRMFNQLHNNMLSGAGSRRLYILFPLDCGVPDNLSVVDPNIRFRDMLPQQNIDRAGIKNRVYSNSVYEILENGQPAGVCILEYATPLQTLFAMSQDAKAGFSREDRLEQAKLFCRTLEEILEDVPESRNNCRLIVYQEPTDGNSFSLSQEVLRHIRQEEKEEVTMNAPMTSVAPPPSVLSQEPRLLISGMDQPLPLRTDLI
Description: Displacement of 5-FAM-labeled diABZI tracer from N-terminal 6xHis-tagged wild-type mouse STING CTD extracted from Escherichia coli BL21(DE3) incubated for 30 mins by competitive binding based fluorescence polarization assay.

The target of series [4] is T2, Stimulator of interferon genes protein. Description: Agonist activity at STING in mouse RAW-Lucia ISG cells harbouring SEAP reporter gene assessed as activation of cGAS-STING signaling pathway incubated for 24 hrs by QUANTI-Blue reagent based analysis. A general note: A reporter such as luciferase makes a cellular process visible.
Series [5] has the same target. Description: Agonist activity at STING in mouse RAW-Lucia ISG-KO-STING cells harbouring SEAP reporter gene assessed as activation of cGAS-STING signaling pathway incubated for 24 hrs by QUANTI-Blue reagent based analysis.
The target in series [6] is Stimulator of interferon genes protein (Homo sapiens, UniProt Q86WV6, G230A/R293Q).
Sequence of Stimulator of interferon genes protein (Homo sapiens, UniProt Q86WV6, G230A/R293Q) (Q86WV6 whole entry G230A/R293Q): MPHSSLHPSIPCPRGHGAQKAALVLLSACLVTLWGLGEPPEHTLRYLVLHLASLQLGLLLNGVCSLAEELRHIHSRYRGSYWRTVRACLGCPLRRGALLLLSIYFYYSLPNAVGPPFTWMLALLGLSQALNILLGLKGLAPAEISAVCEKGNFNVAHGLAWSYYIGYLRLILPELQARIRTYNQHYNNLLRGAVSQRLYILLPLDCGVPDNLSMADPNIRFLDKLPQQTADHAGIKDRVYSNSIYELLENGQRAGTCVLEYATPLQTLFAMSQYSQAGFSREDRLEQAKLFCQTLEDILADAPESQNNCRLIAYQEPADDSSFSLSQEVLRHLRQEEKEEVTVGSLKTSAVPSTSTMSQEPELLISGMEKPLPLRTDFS
Series [7] has as its target Stimulator of interferon genes protein (Homo sapiens, UniProt Q86WV6, R293Q).
A short description of series [8]: Clearance in female C57BL/6 mouse at 10 mg/kg, iv measured up to 24 hrs by LC-MS/MS analysis. As to conditions: in vivo.
The next series has as its system B16-F10. Description: Antitumor activity against mouse B16-F10 cells allografted in female C57BL/6 mouse assessed as tumor growth inhibition at 30 mg/kg, iv qd relative to control. As to conditions: B16-F10, read-out: TGI.

As usually defined, the IC50 is the concentration needed to halve the response being measured. A higher IC50 goes with a need for much substance. Broadly, the EC50 is the midpoint of the concentration-response curve. For orientation: clearance means the volume of plasma or blood freed of the substance per unit of time.

T1 sequence (Q86WV6 whole entry): as the sequence (Q86WV6 whole entry G230A/R293Q) above, with A230G, Q293R counted along it
Sequence of Stimulator of interferon genes protein (Homo sapiens, UniProt Q86WV6, R293Q) (Q86WV6 whole entry R293Q): as the sequence (Q86WV6 whole entry G230A/R293Q) above, with A230G counted along it

As for `O=C(Nc1cc(Cl)c(F)cc1C(=O)O)c1ccc(-n2cnc(F)c2)nn1`, the IC50 came to 1.73 µM in series [1]; 1.84 µM in series [2]; 2.51 µM in series [3]; 0.94 µM in [6]; 1.91 µM in series [7]. Further, the EC50 was 46.5 µM in [4] and over 100 µM in series [5].
Consider `O=C(Nc1cc(F)c(F)cc1C(=O)O)c1ccc(-n2ccnc2)nn1`, for which, in series [3], the IC50 worked out at 1.87 µM. Further, the concentration giving a half-maximal response (EC50) in [4] and in series [5] was over 100 µM throughout. The compound also registered a clearance at 24 h in [8] of 123 mL/min/kg. For the same compound, in the series on B16-F10, the inhibition in vivo at 30 mg/kg is 52.4%.
Regarding `O=C(Nc1cc(Br)c(F)cc1C(=O)O)c1ccc(-n2cnc(F)c2)nn1`, the concentration for half-maximal inhibition (IC50) was 1.36 µM in series [1]; 1.48 µM in series [2]; 2.64 µM in [3]; 0.98 µM in series [6]; 1.45 µM in [7]. The figures for the EC50 in series [4] and in series [5] were 24.6 µM and over 100 µM, respectively.

These data come from ChEMBL document CHEMBL6177999, “Discovery of 3-(Fluoro-imidazolyl)pyridazine Derivatives as Potent STING Agonists with Antitumor Activity” (J Med Chem, 2025).
